Patent publication US20160346249A1 (priority 2012, published 2016)
Read-outs that look alike come from different tables or passages of the source.

Assays:
[1] = system: FMO, human liver microsome (HLM); assay: FMO dependent metabolism (pre-incubation temperature), human liver microsomes
Method: The microsomal incubation mixtures (ca. 0.2 mL) were prepared in triplicate in 0.1M potassium phosphate buffer (pH 7.4) containing 0.25 mg/mL microsomal protein (RLM and HLM), 1 mM EDTA, 4 mM MgCl2, and […]. Incubation mixtures were pre-incubated aerobically in a shaking water bath at 37° C. and 45° C. respectively for ca. 5 minutes. The reaction was initiated by the addition of NADPH (final concentration of 1 mM). […] For the positive controls, benzydamine (Sigma-Aldrich, St. Louis, Mo.) (final concentration 200 μM) was used in the incubation mixture. For the negative controls, water was used in the incubation mixtures instead of microsome protein. The mixtures were kept at ca. −20° C. before analysis by LC-MS/MS.
The incubation of benzydamine (positive control, 200 μM) was carried out concurrently and the formation of benzydamine N-oxide was monitored by LC-MS/MS.

[2] = 26-week rat toxicity and toxicokinetic study; assay type: in vivo; conditions: for AUC(0-t): Crl:CD(SD)IGS BR, rat, plasma, po, 8 mg/kg/day, EB-1010 8 mg/kg/day, read-out: AUC0-24 of metabolite
Method: A portion of the animals from each group was maintained for an additional 4-week post-treatment recovery period.
For toxicology assessment, groups comprised thirty animals of each gender. Assessments included clinical observations, body weight, and food consumption measures noted periodically during the study. […] Ophthalmic examinations were performed during Weeks 1 and 13. […] In addition, the liver, vagina, and ovaries were identified as potential target tissues and were examined microscopically for all animals from all groups at the primary and recovery necropsies. […] 10 animals of each gender from each group were held to week 30 for a 4-week post-treatment recovery period.
For the toxicokinetic studies, there were ten animals of each gender in each group.

[3] = 13-week mouse toxicity and toxicokinetic study; conditions: Crl:CD-1(ICR) BR, in vivo, 0 day
Method: For toxicology assessment ten mice of each gender were placed in each group.
Ophthalmic examinations were performed during Weeks −1 and 12.

[4] = 12-month dog toxicity and toxicokinetic study; assay type: in vivo; conditions: dog, in vivo
Method: Blood samples were collected on Days 0, 91, 181, 268 and 358 from up to 4 animals/gender/group. Plasma samples collected on Days 91, 181, 268, as well as all plasma samples collected from the control group were not evaluated.
For toxicology assessment four dogs of each gender were included in each group. Assessments included clinical observations, body weight, and food consumption measures which were recorded periodically during the study. Ophthalmic examinations were performed during Weeks 1, 12, 25, 38, 51, and 55 (recovery period). Electrocardiograms were recorded during Weeks 2, 12, 25, 38, and 51. Clinical pathology evaluations (hematology, serum chemistry, and urinalysis) were performed during Weeks 1, 12, 25, 38, 52, and 56 (recovery period). At termination, complete necropsies were performed on all dogs and selected organs were weighed. Selected tissues from the control and 20 (15) mg/kg/day group animals and animals euthanized in extremis were examined microscopically. Sections of livers from dogs in the control and 20 (15) mg/kg/day groups were collected at both the primary and 4-week post-treatment recovery necropsies for assessment of drug metabolism enzyme (microsomal cytochrome P450) activity.

For O=C1NCC2(c3ccc(Cl)c(Cl)c3)CC12 (stereo not shown) [EB-10101, 5-(3,4-dichloro-phenyl)-3-aza-bicyclo[3.1.0]hexan-2-one], the “FMO mediation of formation” value [1] was “not FMO-mediated in humans”, the “AUC0-24 of metabolite relative to parent drug” value ([2]; Day 0) was “approximately 7 fold” and the “AUC0-24 of metabolite relative to parent drug” value ([2]; Day 177) was at most 14 fold. The AUC(0-t) ([2]; female, females, Day 177) was 88100 ng·h/mL, the AUC(0-t) ([2]; male, males, Day 177) was 80400 ng·h/mL and the “exposure to metabolite relative to parent drug” value [3] was 2-5 fold. For the same compound, the “AUC0-24 of metabolite relative to parent drug, any individual animal” value [4] was at most 3.5 fold.
